{"source": "patent US20260335265A1", "about": "“ANTICANCER COMPOSITION COMPRISING MALATE METAL SALT” (BIOSOLYX, priority 2022, published 2026)", "key": {"[1]": {"tested_on": "NAD^+ in liver cancer (HepG2), breast cancer (MDA-MB-231), or lung cancer (H1975) cells", "assay": "NAD^+ levels in treated cancer cells (NAD^+ assay kit)", "assay_type": "cell-based", "settings": "HepG2, MDA-MB-231, H1975 cells, CaMal 5 mM, CaMal2 2.5 mM, CaMal-DCA 1 mM, 48 hours, vs untreated controls, p<0.001 (FIG. 2)", "protocol": "1×10^6 liver cancer (HepG2), breast cancer (MDA-MB-231), or lung cancer (H 1975) cells were treated with CaMal of 5 mM, CaMal2 of 2.5 mM, or CaMal-DCA of 1 mM for 48 hours, respectively. Then, NAD^+ levels were then analyzed according to the method of Abcam's NAD^+ assay kit."}, "[2]": {"tested_on": "kidney cancer (Caki-1) cells", "assay": "Cancer cell survival rate (MTT reagent, absorbance)", "assay_type": "cell-based", "settings": "0.5, 1, 2.5, or 5 mM, 96 hours, p<0.001 vs lower-concentration groups (FIG. 5)", "protocol": "(§1) 3×10^3 kidney cancer (Caki-1) or pancreatic cancer (Aspc-1) cells were incubated for 24 hours and then treated with CaMal2 of 0.5, 1, 2.5, or 5 mM and incubated for 96 hours again. Then, 3-(4,5-dimethylthiazol-2-yl)-2,5-diphenyltetrazolium bromide reagent of 10 μl was added to each well and reacted for 1 hour. After removing the reagent at the end of the reaction, DMSO 200 of μl was added to each well and the absorbance was measured to confirm the survival rate of the cells."}, "[3]": {"tested_on": "pancreatic cancer (Aspc-1) cells", "assay": "Cancer cell survival rate (MTT reagent, absorbance)", "assay_type": "cell-based", "settings": "0.5, 1, 2.5, or 5 mM, 96 hours, p<0.001 vs lower-concentration groups (FIGS. 5, 6)", "protocol": "as §1\n3×10^3 liver cancer (HepG2), lung cancer (H1975), pancreatic cancer (Aspc-1), or breast cancer (MDA-MB-231) cells were cultured for 24 hours and then treated with CaMal-DCA of 0.5, 1, 2.5, or 5 mM and incubated for another 96 hours. Then, 3-(4,5-dimethylthiazol-2-yl)-2,5-diphenyltetrazolium bromide reagent of 10 μl was added to each well and reacted for 1 hour. After removing the reagent at the end of the reaction, DMSO of 200 μl was added to each well and the absorbance was measured to confirm the survival rate of the cells."}, "[4]": {"tested_on": "liver cancer (HepG2) cells", "assay": "Tumor growth inhibition in liver cancer xenograft mice", "assay_type": "in vivo, Athymic Balb/c nude mice", "settings": "80 mg/kg orally five times a week; 30 days; vs untreated controls; p<0.001 (FIG. 11)", "protocol": "1×10^7 liver cancer (HepG2) cells were implanted with Athymic Balb/c nude mice and when they grew to approximately 200 mm^3, CaMal2 of 80 mg/kg was administered orally five times a week to observe tumor growth for 30 days."}, "[5]": {"tested_on": "Malate dehydrogenase 2 (MDH2)", "assay": "Malate dehydrogenase 2 (MDH2) level by ELISA in treated cancer cells", "assay_type": "cell-based", "protocol": "(§2) 1×10^6 liver cancer (HepG2), breast cancer (MDA-MB-231), or lung cancer (H1975) cells were treated with calcium malate (CaMal) of 5 mM, calcium dimalate (CaMal2) of 2.5 mM, or calcium malate-dichloroacetic acid (CaMal-DCA) of 1 mM for 48 hours, respectively. After that, proteins were then extracted using RIPA buffer. Biorbyt's Malate dehydrogenase 2 (MDH2), Malic enzyme 2 (ME2) and Malic enzyme 3 (ME3) ELISA assay kits were utilized to quantitatively analyze the respective factors in the above extracted proteins."}, "Malic enzyme 2 (ME2)": {"tested_on": "Malic enzyme 2 (ME2)", "assay": "Malic enzyme 2 (ME2) level by ELISA in treated cancer cells", "assay_type": "cell-based", "protocol": "as §2"}, "Malic enzyme 3 (ME3)": {"tested_on": "Malic enzyme 3 (ME3)", "assay": "Malic enzyme 3 (ME3) level by ELISA in treated cancer cells", "assay_type": "cell-based", "protocol": "as §2"}, "beta cells": {"tested_on": "beta cells", "assay": "Insulin levels in culture medium of pancreatic beta cells", "assay_type": "cell-based", "settings": "CaMal 5 mM or CaMal2 2.5 mM, 48 hours", "protocol": "1×10^6 beta cells were treated with CaMal of 5 mM or CaMal2 of 2.5 mM for 48 hours in the absence or presence of glucose of 5 mM, respectively, and a culture medium was harvested. The medium was placed in a spin concentrator (Corning, Inc.) and run at 7,500 g for 10 minutes to obtain insulin assay samples. The samples were quantitatively analyzed using an assay kit manufactured by Enzo company."}, "[6]": {"tested_on": "brain cancer (U-87MG) cells", "assay": "Cancer cell survival rate (MTT reagent, absorbance)", "assay_type": "cell-based", "settings": "0.5, 1, 2.5, or 5 mM, 96 hours, p<0.001 vs 0.5, 1, and 2.5 mM groups (FIG. 4)", "protocol": "(§3) 3×10^3 colon cancer (HCT-116) or brain cancer (U-87MG) cells were incubated for 24 hours and then treated with CaMal of 0.5, 1, 2.5, or 5 mM and incubated for another 96 hours. Then, 3-(4,5-dimethylthiazol-2-yl)-2,5-diphenyltetrazolium bromide reagent of 10 μl was added to each well and reacted for 1 hour. After removing the reagent at the end of the reaction, DMSO of 200 μl was added to each well and then the absorbance was measured to confirm a survival rate of the cells."}, "[7]": {"tested_on": "colon cancer (HCT-116) cells", "assay": "Cancer cell survival rate (MTT reagent, absorbance)", "assay_type": "cell-based", "settings": "0.5, 1, 2.5, or 5 mM, 96 hours, p<0.001 vs 0.5, 1, and 2.5 mM groups (FIG. 4)", "protocol": "as §3"}, "[8]": {"tested_on": "pancreatic cancer (Aspc-1) cells", "assay": "Tumor growth inhibition in pancreatic cancer xenograft mice", "assay_type": "in vivo, Athymic Balb/c nude mice", "settings": "20 mg/kg subcutaneously twice a week; 30 days; vs untreated controls; p<0.001 (FIG. 10)", "protocol": "1×10^7 pancreatic cancer (Aspc-1) cells were implanted with Athymic Balb/c nude mice and when they grew to approximately 200 mm^3, CaMal of 20 mg/kg was administered subcutaneously twice a week to monitor tumor growth for 30 days."}, "cancer cells": {"tested_on": "cancer cells", "assay": "Death of cancer cells (summary statement)", "assay_type": "cell-based", "settings": "summary of FIGS. 4, 5, 10, 11 (calcium malate, calcium di-malate) and FIGS. 6, 12 (calcium malate and DCA)", "protocol": "as §3, §1\n3×10^3 liver cancer (HepG2), lung cancer (H1975), pancreatic cancer (Aspc-1), or breast cancer (MDA-MB-231) cells were cultured for 24 hours and then treated with CaMal-DCA of 0.5, 1, 2.5, or 5 mM and incubated for another 96 hours. […] After removing the reagent at the end of the reaction, DMSO of 200 μl was added to each well and the absorbance was measured to confirm the survival rate of the cells."}, "[9]": {"settings": "HepG2, MDA-MB-231, H1975 cells, CaMal 5 mM, CaMal2 2.5 mM, CaMal-DCA 1 mM, 48 hours, vs untreated controls, p<0.001 (FIG. 1)"}, "[10]": {"settings": "various cancer cell lines (FIG. 1), stated as activity"}}, "data": [{"smiles": "O=C(O)CC(O)C(=O)O", "note": "(stereo not drawn) [CaMal2, calcium dimalate]", "values": [{"measurement": "levels of NAD^+", "setting": "[1]; listed as calcium di-malate", "result": "dramatic exhaustion of NAD^+"}, {"measurement": "survival rate of the cancer cells", "setting": "[2]", "result": "decreased the survival rate of the cancer cells in a concentration-dependent manner"}, {"measurement": "survival rate of the cancer cells", "setting": "[3]", "result": "decreased the survival rate of the cancer cells in a concentration-dependent manner"}, {"measurement": "tumor size", "setting": "[4]", "result": "tumor size became reduced visually and clearly"}]}, {"smiles": "O=C(O)CC(O)C(=O)O", "note": "(stereo not drawn) [CaMal, calcium malate]", "values": [{"measurement": "amount of MDH2", "setting": "[5]; [9]", "result": "significant increase"}, {"measurement": "activity of MDH2", "setting": "[5]; [10]", "result": "significant increase"}, {"measurement": "amount of ME2", "setting": "Malic enzyme 2 (ME2); [9]", "result": "significant increase"}, {"measurement": "activity of ME2 / malic enzymes", "setting": "Malic enzyme 2 (ME2); [10]", "result": "significant increase"}, {"measurement": "amount of ME3", "setting": "Malic enzyme 3 (ME3); [9]", "result": "significant increase"}, {"measurement": "activity of ME3 / malic enzymes", "setting": "Malic enzyme 3 (ME3); [10]", "result": "significant increase"}, {"measurement": "levels of NAD^+", "setting": "[1]", "result": "significant decrease"}, {"measurement": "levels of NAD^+", "setting": "[1]; listed as calcium malate", "result": "dramatic exhaustion of NAD^+"}, {"measurement": "insulin levels", "setting": "beta cells; absence of glucose, p<0.001 vs Control (No-glucose) (FIG. 3)", "result": "significant increase in insulin levels"}, {"measurement": "insulin levels", "setting": "beta cells; presence of glucose 5 mM, p<0.001 vs Control (Glucose) (FIG. 3)", "result": "significant increase in insulin levels"}, {"measurement": "survival rate of the cancer cells", "setting": "[6]", "result": "concentration-dependent manner decrease in a survival rate of the cancer cells"}, {"measurement": "survival rate of the cancer cells", "setting": "[7]", "result": "concentration-dependent manner decrease in a survival rate of the cancer cells"}, {"measurement": "tumor size", "setting": "[8]", "result": "tumor size became reduced visually and clearly"}, {"measurement": "death of cancer cells", "setting": "cancer cells", "result": "death of cancer cells"}]}]}
